Literature values in patent US20240368000A1, “CARBON REMOVAL FROM SEAWATER AND OTHER LIQUIDS USING PHOTOACTIVE COMPOUNDS” (University of Washington, priority 2021, published 2024).

Details: ground (dark) state of the photoacid; value from Wimberger et al., Chem. Commun. 2022, 58(37), 5610-5613

pKa-Dark: 7.33
Compound: COc1ccc2c(c1)C(C)(C)C(/C=C\c1ccccc1O)=[N+]2CCCC[S@SP3](=O)(=O)[O-] [merocyanine photoacid]
